Results: article PMC5341858, “Molecular regulation of apoptotic machinery and lipid metabolism by mTORC1/mTORC2 dual inhibitors in preclinical models of HER2+/PIK3CAmut breast cancer” (Oncotarget, 2016)

How the values were obtained:
Assay in all cases: KINOMEscan binding assay
ERK1 = target: T1, ERK1 (Homo sapiens, UniProt P27361); details: 1000 nM, percent control relative to vehicle
T1 construct: purchased DiscoveRx KINOMEscan
Text: (§1) IC50 values were generated using Graphpad PRISM 5 software.

AKT1 = target: T2, AKT1 (Homo sapiens, UniProt P31749); details: 1000 nM, percent control relative to vehicle
T2 construct: purchased DiscoveRx KINOMEscan
T2 sequence (P31749 whole entry): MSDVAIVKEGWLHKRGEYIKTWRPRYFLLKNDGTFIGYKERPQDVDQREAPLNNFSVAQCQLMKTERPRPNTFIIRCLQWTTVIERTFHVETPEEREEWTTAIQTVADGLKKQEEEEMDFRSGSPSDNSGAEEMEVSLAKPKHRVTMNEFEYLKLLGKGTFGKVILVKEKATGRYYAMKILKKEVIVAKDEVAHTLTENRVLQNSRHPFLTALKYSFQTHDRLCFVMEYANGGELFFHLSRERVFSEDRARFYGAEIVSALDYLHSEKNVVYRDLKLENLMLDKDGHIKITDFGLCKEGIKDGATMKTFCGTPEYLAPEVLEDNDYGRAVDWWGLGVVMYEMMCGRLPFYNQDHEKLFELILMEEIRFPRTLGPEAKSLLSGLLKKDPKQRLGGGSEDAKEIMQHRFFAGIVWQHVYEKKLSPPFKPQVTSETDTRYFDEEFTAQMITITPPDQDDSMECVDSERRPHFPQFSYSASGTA
Text: as §1

PIK3CB = PIK3CB (Homo sapiens, UniProt P42338)
Text: as §1

MKNK1 = target: T3, MKNK1 (Homo sapiens, UniProt Q9BUB5); details: 1000 nM, percent control relative to vehicle
T3 construct: purchased DiscoveRx KINOMEscan
Text: as §1

[1] = target: T4, JAK2 (JH1domain-catalytic) (Homo sapiens, UniProt O60674); details: 1000 nM, percent control relative to vehicle
T4 construct: JAK2 (JH1domain-catalytic); purchased DiscoveRx KINOMEscan
Text: as §1

MARK3 = target: T5, MARK3 (Homo sapiens, UniProt P27448); details: 1000 nM, percent control relative to vehicle
T5 construct: purchased DiscoveRx KINOMEscan
Text: as §1

ZAP70 = target: T6, ZAP70 (Homo sapiens, UniProt P43403); details: 1000 nM, percent control relative to vehicle
T6 construct: purchased DiscoveRx KINOMEscan
Text: as §1

KIT (V559D, T670I) = target: T7, KIT (V559D, T670I) (Homo sapiens, UniProt P10721, T670I/V559D); details: 1000 nM, percent control relative to vehicle
T7 construct: purchased DiscoveRx KINOMEscan
Text: as §1

ERBB2 = target: T8, ERBB2 (Homo sapiens, UniProt P04626); details: 1000 nM, percent control relative to vehicle
T8 construct: purchased DiscoveRx KINOMEscan
Text: as §1

PLK3 = target: T9, PLK3 (Homo sapiens, UniProt Q9H4B4); details: 1000 nM, percent control relative to vehicle
T9 construct: purchased DiscoveRx KINOMEscan
Text: as §1

CHEK1 = target: T10, CHEK1 (Homo sapiens, UniProt O14757); details: 1000 nM, percent control relative to vehicle
T10 construct: purchased DiscoveRx KINOMEscan
Text: as §1

AKT2 = target: T11, AKT2 (Homo sapiens, UniProt P31751); details: 1000 nM, percent control relative to vehicle
T11 construct: purchased DiscoveRx KINOMEscan
Text: as §1

PRKCE = target: T12, PRKCE (Homo sapiens, UniProt Q02156); details: 1000 nM, percent control relative to vehicle
T12 construct: purchased DiscoveRx KINOMEscan
Text: as §1

ADCK3 = target: T13, ADCK3 (Homo sapiens, UniProt Q8NI60); details: 1000 nM, percent control relative to vehicle
T13 construct: purchased DiscoveRx KINOMEscan
Text: as §1

MLK1 = target: T14, MLK1 (Homo sapiens, UniProt P80192); details: 1000 nM, percent control relative to vehicle
T14 construct: purchased DiscoveRx KINOMEscan
Text: as §1

CDK11 = target: T15, CDK11 (Homo sapiens, UniProt Q9BWU1); details: 1000 nM, percent control relative to vehicle
T15 construct: purchased DiscoveRx KINOMEscan
Text: as §1

EGFR = target: T16, EGFR (Homo sapiens, UniProt P00533); details: 1000 nM, percent control relative to vehicle
T16 construct: purchased DiscoveRx KINOMEscan
Text: as §1

PIK3CG = PIK3CG (Homo sapiens, UniProt P48736)
Sequence of PIK3CG (P48736 whole entry): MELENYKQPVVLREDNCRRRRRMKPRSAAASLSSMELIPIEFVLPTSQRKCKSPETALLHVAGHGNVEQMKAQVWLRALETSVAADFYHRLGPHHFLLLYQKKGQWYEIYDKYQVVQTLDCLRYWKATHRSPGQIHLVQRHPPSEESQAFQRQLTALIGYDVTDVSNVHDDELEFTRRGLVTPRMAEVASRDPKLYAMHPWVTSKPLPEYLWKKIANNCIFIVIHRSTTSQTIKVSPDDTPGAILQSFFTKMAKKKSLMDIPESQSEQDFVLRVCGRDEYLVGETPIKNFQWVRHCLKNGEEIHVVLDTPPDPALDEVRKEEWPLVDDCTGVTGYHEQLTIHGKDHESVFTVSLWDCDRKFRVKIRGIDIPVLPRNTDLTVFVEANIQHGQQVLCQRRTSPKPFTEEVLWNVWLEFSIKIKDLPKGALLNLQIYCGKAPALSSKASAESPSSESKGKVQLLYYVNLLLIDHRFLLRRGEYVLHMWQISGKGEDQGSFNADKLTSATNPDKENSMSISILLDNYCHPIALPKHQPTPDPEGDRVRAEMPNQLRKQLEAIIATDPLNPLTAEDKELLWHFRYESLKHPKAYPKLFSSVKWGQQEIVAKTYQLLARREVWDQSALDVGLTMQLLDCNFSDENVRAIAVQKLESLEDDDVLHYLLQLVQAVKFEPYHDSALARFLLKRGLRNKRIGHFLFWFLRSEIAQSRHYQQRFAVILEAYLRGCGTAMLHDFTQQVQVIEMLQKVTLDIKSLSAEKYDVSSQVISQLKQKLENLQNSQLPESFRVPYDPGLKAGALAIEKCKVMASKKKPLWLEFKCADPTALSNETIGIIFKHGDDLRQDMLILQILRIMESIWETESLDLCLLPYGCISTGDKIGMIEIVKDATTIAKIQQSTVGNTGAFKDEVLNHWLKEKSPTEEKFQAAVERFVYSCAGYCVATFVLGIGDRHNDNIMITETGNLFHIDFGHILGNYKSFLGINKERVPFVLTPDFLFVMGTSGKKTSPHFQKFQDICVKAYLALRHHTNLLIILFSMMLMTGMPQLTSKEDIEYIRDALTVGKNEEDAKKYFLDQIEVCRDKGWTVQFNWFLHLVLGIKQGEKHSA
Text: as §1

BRAF = target: T17, BRAF (Homo sapiens, UniProt P15056); details: 1000 nM, percent control relative to vehicle
T17 construct: purchased DiscoveRx KINOMEscan
Text: as §1

TRKA = target: T18, TRKA (Homo sapiens, UniProt P04629); details: 1000 nM, percent control relative to vehicle
T18 construct: purchased DiscoveRx KINOMEscan
Text: as §1

MEK2 = target: T19, MEK2 (Homo sapiens, UniProt P36507); details: 1000 nM, percent control relative to vehicle
T19 construct: purchased DiscoveRx KINOMEscan
Text: as §1

p38-alpha = target: T20, p38-alpha (Homo sapiens, UniProt Q16539); details: 1000 nM, percent control relative to vehicle
T20 construct: purchased DiscoveRx KINOMEscan
Text: as §1

AURKA = target: T21, AURKA (Homo sapiens, UniProt O14965); details: 1000 nM, percent control relative to vehicle
T21 construct: purchased DiscoveRx KINOMEscan
Text: as §1

INSR = target: T22, INSR (Homo sapiens, UniProt P06213); details: 1000 nM, percent control relative to vehicle
T22 construct: purchased DiscoveRx KINOMEscan
Text: as §1

ALK = target: T23, ALK (Homo sapiens, UniProt Q9UM73); details: 1000 nM, percent control relative to vehicle
T23 construct: purchased DiscoveRx KINOMEscan
T23 sequence (Q9UM73 19-1620): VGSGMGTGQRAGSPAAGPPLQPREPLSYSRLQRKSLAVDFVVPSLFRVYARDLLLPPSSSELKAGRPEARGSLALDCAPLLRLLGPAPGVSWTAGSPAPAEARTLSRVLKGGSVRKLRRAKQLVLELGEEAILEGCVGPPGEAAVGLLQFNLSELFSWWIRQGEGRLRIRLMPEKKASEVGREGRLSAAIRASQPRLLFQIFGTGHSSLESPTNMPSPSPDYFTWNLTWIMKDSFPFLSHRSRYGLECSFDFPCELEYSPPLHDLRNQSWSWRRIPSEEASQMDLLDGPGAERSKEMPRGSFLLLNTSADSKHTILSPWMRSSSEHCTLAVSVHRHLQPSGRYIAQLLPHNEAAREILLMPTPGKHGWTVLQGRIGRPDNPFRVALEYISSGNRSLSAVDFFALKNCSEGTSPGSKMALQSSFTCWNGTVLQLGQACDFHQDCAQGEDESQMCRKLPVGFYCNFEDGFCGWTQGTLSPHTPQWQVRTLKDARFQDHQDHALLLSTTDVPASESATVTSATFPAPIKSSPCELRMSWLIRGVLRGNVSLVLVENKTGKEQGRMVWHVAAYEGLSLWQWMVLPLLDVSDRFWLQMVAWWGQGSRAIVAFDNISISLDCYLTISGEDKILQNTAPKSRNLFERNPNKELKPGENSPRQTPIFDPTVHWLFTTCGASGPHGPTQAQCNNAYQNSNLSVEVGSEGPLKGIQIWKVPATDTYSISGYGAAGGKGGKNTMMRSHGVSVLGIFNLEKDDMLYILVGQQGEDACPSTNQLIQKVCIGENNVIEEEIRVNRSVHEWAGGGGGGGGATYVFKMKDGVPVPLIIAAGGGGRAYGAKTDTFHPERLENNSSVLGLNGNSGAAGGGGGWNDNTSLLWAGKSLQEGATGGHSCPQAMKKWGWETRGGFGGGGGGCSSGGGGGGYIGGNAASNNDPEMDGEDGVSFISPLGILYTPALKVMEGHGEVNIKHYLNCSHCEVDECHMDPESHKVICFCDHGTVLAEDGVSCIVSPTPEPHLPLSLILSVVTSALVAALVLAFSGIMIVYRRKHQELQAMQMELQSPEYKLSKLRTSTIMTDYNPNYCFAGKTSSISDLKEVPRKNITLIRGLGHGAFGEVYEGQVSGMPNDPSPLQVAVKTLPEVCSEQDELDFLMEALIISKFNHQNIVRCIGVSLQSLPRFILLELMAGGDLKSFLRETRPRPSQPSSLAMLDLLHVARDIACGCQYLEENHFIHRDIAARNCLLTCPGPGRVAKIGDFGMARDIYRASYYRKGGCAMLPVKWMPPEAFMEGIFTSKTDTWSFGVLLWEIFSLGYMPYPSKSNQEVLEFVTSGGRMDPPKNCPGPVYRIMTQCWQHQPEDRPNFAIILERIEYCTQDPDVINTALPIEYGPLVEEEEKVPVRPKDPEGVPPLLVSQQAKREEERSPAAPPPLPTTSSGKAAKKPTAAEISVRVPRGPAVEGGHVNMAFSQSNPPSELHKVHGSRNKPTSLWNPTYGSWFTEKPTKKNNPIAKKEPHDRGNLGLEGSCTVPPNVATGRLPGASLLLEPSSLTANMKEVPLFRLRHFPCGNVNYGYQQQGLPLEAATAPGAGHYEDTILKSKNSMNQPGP
Text: as §1

MAP3K4 = target: T24, MAP3K4 (Homo sapiens, UniProt Q9Y6R4); details: 1000 nM, percent control relative to vehicle
T24 construct: purchased DiscoveRx KINOMEscan
Text: as §1

MKNK2 = target: T25, MKNK2 (Homo sapiens, UniProt Q9HBH9); details: 1000 nM, percent control relative to vehicle
T25 construct: purchased DiscoveRx KINOMEscan
Text: as §1

FAK = target: T26, FAK (Homo sapiens, UniProt Q05397); details: 1000 nM, percent control relative to vehicle
T26 construct: purchased DiscoveRx KINOMEscan
Text: as §1

[2] = target: T27, ABL1 (T315I)- phosphorylated (Homo sapiens, UniProt P00519, T315I); details: 1000 nM, percent control relative to vehicle
T27 construct: purchased DiscoveRx KINOMEscan
Text: as §1

CDK9 = target: T28, CDK9 (Homo sapiens, UniProt P50750); details: 1000 nM, percent control relative to vehicle
T28 construct: purchased DiscoveRx KINOMEscan
Text: as §1

ABL1-phosphorylated = target: T29, ABL1-phosphorylated (Homo sapiens, UniProt P00519); details: 1000 nM, percent control relative to vehicle
T29 construct: purchased DiscoveRx KINOMEscan
Text: as §1

[3] = target: T30, JAK3 (JH1domain-catalytic) (Homo sapiens, UniProt P52333); details: 1000 nM, percent control relative to vehicle
T30 construct: JAK3 (JH1domain-catalytic); purchased DiscoveRx KINOMEscan
T30 sequence (P52333 813-1124 limits assumed): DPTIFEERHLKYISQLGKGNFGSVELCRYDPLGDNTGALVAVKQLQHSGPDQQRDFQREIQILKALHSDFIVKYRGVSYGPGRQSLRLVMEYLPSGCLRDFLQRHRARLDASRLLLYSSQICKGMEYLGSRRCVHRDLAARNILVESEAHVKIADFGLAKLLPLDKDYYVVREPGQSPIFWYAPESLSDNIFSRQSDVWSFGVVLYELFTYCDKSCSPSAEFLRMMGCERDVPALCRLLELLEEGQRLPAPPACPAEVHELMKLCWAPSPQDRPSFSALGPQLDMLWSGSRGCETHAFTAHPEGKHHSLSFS
Text: as §1

ULK2 = target: T31, ULK2 (Homo sapiens, UniProt Q8IYT8); details: 1000 nM, percent control relative to vehicle
T31 construct: purchased DiscoveRx KINOMEscan
Text: as §1

IGF1R = target: T32, IGF1R (Homo sapiens, UniProt P08069); details: 1000 nM, percent control relative to vehicle
T32 construct: purchased DiscoveRx KINOMEscan
Text: as §1

PAK4 = target: T33, PAK4 (Homo sapiens, UniProt O96013); details: 1000 nM, percent control relative to vehicle
T33 construct: purchased DiscoveRx KINOMEscan
Text: as §1

TGFBR1 = target: T34, TGFBR1 (Homo sapiens, UniProt P36897); details: 1000 nM, percent control relative to vehicle
T34 construct: purchased DiscoveRx KINOMEscan
T34 sequence (P36897 34-503): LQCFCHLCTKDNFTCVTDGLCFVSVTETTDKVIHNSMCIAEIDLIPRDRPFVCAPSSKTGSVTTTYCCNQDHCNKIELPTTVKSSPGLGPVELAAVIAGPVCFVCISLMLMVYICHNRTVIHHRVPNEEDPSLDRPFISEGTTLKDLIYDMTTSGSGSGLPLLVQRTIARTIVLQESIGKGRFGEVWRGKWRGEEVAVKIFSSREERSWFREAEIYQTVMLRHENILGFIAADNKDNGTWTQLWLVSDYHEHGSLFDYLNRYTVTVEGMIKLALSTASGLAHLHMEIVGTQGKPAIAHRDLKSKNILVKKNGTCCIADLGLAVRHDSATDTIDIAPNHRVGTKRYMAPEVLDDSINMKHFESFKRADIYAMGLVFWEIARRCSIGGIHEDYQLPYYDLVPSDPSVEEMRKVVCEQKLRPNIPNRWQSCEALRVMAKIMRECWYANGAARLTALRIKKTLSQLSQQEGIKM
Text: as §1

PAK1 = target: T35, PAK1 (Homo sapiens, UniProt Q13153); details: 1000 nM, percent control relative to vehicle
T35 construct: purchased DiscoveRx KINOMEscan
Text: as §1

FGFR2 = target: T36, FGFR2 (Homo sapiens, UniProt P21802); details: 1000 nM, percent control relative to vehicle
T36 construct: purchased DiscoveRx KINOMEscan
Text: as §1

PDGFRA = target: T37, PDGFRA (Homo sapiens, UniProt P16234); details: 1000 nM, percent control relative to vehicle
T37 construct: purchased DiscoveRx KINOMEscan
Text: as §1

MAPKAPK2 = target: T38, MAPKAPK2 (Homo sapiens, UniProt P49137); details: 1000 nM, percent control relative to vehicle
T38 construct: purchased DiscoveRx KINOMEscan
T38 sequence (P49137 whole entry): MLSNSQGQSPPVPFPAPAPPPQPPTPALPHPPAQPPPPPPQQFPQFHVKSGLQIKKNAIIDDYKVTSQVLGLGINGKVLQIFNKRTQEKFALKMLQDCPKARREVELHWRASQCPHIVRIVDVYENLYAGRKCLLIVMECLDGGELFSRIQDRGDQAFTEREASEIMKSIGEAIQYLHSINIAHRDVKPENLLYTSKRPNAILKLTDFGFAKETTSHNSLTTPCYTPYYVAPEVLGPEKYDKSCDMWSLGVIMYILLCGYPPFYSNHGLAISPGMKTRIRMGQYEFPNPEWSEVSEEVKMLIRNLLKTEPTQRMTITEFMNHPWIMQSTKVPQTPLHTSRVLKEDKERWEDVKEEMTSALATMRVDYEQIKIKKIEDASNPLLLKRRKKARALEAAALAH
Text: as §1

JNK2 = target: T39, JNK2 (Homo sapiens, UniProt P45984); details: 1000 nM, percent control relative to vehicle
T39 construct: purchased DiscoveRx KINOMEscan
T39 sequence (P45984 whole entry): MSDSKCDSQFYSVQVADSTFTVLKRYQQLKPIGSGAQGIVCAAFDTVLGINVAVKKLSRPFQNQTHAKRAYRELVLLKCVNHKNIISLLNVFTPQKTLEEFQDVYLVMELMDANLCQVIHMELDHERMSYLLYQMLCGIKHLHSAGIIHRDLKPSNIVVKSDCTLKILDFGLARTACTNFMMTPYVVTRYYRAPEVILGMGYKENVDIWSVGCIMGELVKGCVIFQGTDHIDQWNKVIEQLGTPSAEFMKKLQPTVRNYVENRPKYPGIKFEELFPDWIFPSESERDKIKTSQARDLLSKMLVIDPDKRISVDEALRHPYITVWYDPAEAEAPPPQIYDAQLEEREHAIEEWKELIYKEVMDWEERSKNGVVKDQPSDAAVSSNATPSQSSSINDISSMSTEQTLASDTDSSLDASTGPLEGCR
Text: as §1

p38-beta = target: T40, p38-beta (Homo sapiens, UniProt Q15759); details: 1000 nM, percent control relative to vehicle
T40 construct: purchased DiscoveRx KINOMEscan
Text: as §1

PDPK1 = target: T41, PDPK1 (Homo sapiens, UniProt O15530); details: 1000 nM, percent control relative to vehicle
T41 construct: purchased DiscoveRx KINOMEscan
Text: as §1

AXL = target: T42, AXL (Homo sapiens, UniProt P30530); details: 1000 nM, percent control relative to vehicle
T42 construct: purchased DiscoveRx KINOMEscan
Text: as §1

SMILES: CNC(=O)c1cccc(-c2ccc3c(N4C5CCC4COC5)nc(N4CCOC[C@@H]4C)nc3n2)c1 [MTI-31]
- % Control (ERK1): 100%
- % Control (AKT1): 100%
- Kd (PIK3CB): > 1000 nM
- % Control (MKNK1): 90%
- % Control [1]: 88%
- % Control (MARK3): 71%
- % Control (ZAP70): 72%
- % Control (KIT (V559D, T670I)): 100%
- % Control (ERBB2): 97%
- % Control (PLK3): 92%
- % Control (CHEK1): 83%
- % Control (AKT2): 94%
- % Control (PRKCE): 91%
- % Control (ADCK3): 97%
- % Control (MLK1): 100%
- % Control (CDK11): 100%
- % Control (EGFR): 94%
- Kd (PIK3CG): > 1000 nM
- % Control (PIK3CG; 1000 nM, percent control relative to vehicle): 100%
- % Control (BRAF): 80%
- % Control (TRKA): 84%
- % Control (MEK2): 75%
- % Control (p38-alpha): 100%
- % Control (AURKA): 97%
- % Control (INSR): 100%
- % Control (ALK): 78%
- % Control (MAP3K4): 100%
- % Control (MKNK2): 100%
- % Control (FAK): 89%
- % Control [2]: 76%
- % Control (CDK9): 90%
- % Control (ABL1-phosphorylated): 70%
- % Control [3]: 82%
- % Control (ULK2): 80%
- % Control (IGF1R): 100%
- % Control (PAK4): 100%
- % Control (TGFBR1): 93%
- % Control (PAK1): 100%
- % Control (FGFR2): 100%
- % Control (PDGFRA): 93%
- % Control (MAPKAPK2): 87%
- % Control (JNK2): 96%
- % Control (p38-beta): 100%
- % Control (PDPK1): 97%
- % Control (AXL): 97%
